Values quoted from earlier work, collected in paper PMC11261219 (Clinical and Molecular Hepatology, 2024).

Assays:
HBV DNA and HBV RNA = details: added to patients taking NUCs, versus NUCs alone
HBV = details: after 3 years

O=C(NCc1cnc(C(F)(F)F)s1)c1ccc2c(c1)NC(=O)c1ccccc1S2(=O)=O [vebicorvir]
suppression of HBV DNA and HBV RNA (HBV DNA and HBV RNA): further suppressed HBV DNA and HBV RNA more than with NUCs alone

pegylated interferon [pegIFN]
functional cure, patients (HBV): approximately 11%
